Target: human AMPK (full-length γ1, β1 and α1 subunits) (Homo sapiens (Human), UniProt Q13131+Q9Y478)
Assay: AMPK in vitro biochemical assay (33P-based, SAMS peptide, PP2A dephosphorylation)
Conditions: for EC50: activation of phosphorylated AMPK, 33P-ATP, SAMS peptide, PP2A treatment, 4-parameter fit; for Maximum / Emax: counts as % of positive control wells (enzyme, allosteric activator or AMP, PP2A and substrate); for Emax: read-out: Maximum
From the text: We designed a tricistronic AMPK expression construct that included open reading frames encoding the full-length γ1, β1 and α1 subunits of human AMPK with a ribosome-binding site (RBS) ahead of each coding region and subcloned this into pET-14b expression vector (Novagen, Madison, Wis.) using standard molecular biology techniques. AMPK tricistronic construct was transformed into E. coli BL21-CodonPlus™ (DE3)-RIPL strain (Stratagene) and transformants were selected on LB (Luria-Bertani) agar plates containing ampicillin (100 μg/ml). […] Optical density sample measurements were made on an UltroSpec 2000 spectrophotometer (Pharmacia Biotech) at 600 nm. When the cell density reached ˜0.9 OD, the temperature was reduced to 18° C. and the culture was induced at 18° C. with 0.1 mM Isopropylthiogalactoside (IPTG). […] The cell pellets were aliquoted into four portions, flash frozen in liquid nitrogen and were stored at −80° C. until purification. For purification, frozen cell paste was thawed and resuspended in 50 ml lysis buffer (50 mM Tris, pH 8.0, 150 mM NaCl, 10% glycerol, 2 mM Tris-2-carboxyethyl phosphine (TCEP), 20 mM imidazole and 0.001% Triton X-100). After sonication, insoluble material was removed by centrifugation at 15,000 rpm in a Sorvall® RC5 plus centrifuge for 30 min at 4° C. and the supernatant was loaded onto a 5 ml HisTrap™ HP column (GE Healthcare, Piscataway, N.J.) and washed with five column volumes of lysis buffer. Bound proteins were eluted using an elution buffer containing 300 mM imidazole. Fractions containing AMPK subunits were pooled based on SDS-10% PAGE analysis and dialyzed overnight in dialysis buffer (50 mM Tris, pH 8.0, 150 mM NaCl, 10% glycerol, 2 mM TCEP, and 0.001% Triton X-100). […] The phosphorylated AMPK complex was re-purified on HisTrap™ HP column as before, dialyzed over night in dialysis buffer. The phosphorylated AMPK complex was further purified by gel filtration chromatography with a Superdex 200 HiLoad 16/60 column (GE Healthcare) in SEC buffer (50 mM Tris, pH 8.0, 150 mM NaCl, 10% glycerol, 2 mM TCEP, and 0.001% Triton X-100).
The harvest time (72 hours post infection) was indicated by percent cell viability (to 85-90%) and increased cell diameter (3-4 μm). […] For purification, the cell paste was resuspended in 500 mL lysis buffer (50 mM Tris pH 8.0, 150 mM NaCl, 25 mM imidazole, 10% glycerol, 2 mM MgCl2, 2 mM TCEP+protease inhibitor cocktail. After lysis, cellular debris was removed by centrifugation at 36K×g for 1 hour. The resulting supernatant was filtered at 0.2 micron before applying to a 1 mL nickel charged IMAC column (HisTrap, GE). The bound resin was washed to baseline with 50 CV of 50 mM Tris pH 8.0, 150 mM NaCl, 25 mM imidazole, 10% glycerol, 2 mM MgCl2, 2 mM TCEP before eluting over a 20 CV gradient to 100% with wash buffer containing 500 mM imidazole. Pooled fractions containing PP2A were combined and diluted 10× with 50 mM Tris pH 8.0, 10% glycerol, 1 mM TCEP and applied to a 1 mL AIEX resin (HiTrap QFF, GE). The bound resin was washed with dilution buffer and PP2A was eluted over a 20 CV gradient to 100% 50 mM Tris pH 8.0, 500 mM NaCl, 10% glycerol, 1 mM TCEP and was further diluted 1:1 with 50 mM Tris pH 8.0, 150 mM NaCl, 10% glycerol, and 1 mM TCEP buffer.
The biochemical EC50 (half-maximal concentration required for full activation) of compounds for the activation of AMPK was evaluated by ^33P-based assay using SAMS peptide (commercially available) derived from ACC-1. Twenty μl of phosphorylated AMPK diluted in assay buffer, (50 mM HEPES, 1 mM EGTA, 10 mM MgCl2, 0.25 mM DTT, 0.01% Tween-20, 0.01% BSA (pH 7.5)) was added to 384 well plates containing 1 μL of test compound. Following a fifteen minute room temperature incubation, 10 μL of protein phosphatase PP2A was added to the plate to dephosphorylate pThr172 of AMPK. […] The reaction was terminated after 60 minutes incubation at room temperature by the addition of 15 μL of 2% H3PO4.

Sequence of human AMPK (full-length γ1, β1 and α1 subunits) (Q13131 whole entry): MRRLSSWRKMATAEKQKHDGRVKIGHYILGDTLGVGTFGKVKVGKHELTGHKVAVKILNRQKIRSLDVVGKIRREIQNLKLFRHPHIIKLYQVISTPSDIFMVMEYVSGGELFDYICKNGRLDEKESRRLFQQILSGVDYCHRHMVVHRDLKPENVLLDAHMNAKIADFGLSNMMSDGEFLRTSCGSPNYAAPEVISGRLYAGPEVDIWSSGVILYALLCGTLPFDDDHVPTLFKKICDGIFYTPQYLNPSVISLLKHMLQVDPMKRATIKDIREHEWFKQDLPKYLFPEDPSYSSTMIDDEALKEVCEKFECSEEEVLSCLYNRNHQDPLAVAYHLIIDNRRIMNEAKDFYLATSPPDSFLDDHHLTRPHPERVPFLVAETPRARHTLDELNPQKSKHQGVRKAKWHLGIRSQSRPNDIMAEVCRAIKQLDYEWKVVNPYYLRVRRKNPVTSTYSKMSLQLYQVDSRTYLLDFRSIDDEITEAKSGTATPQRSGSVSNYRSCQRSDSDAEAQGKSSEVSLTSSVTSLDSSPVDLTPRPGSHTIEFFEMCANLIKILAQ
Sequence of human AMPK (full-length γ1, β1 and α1 subunits) (Q9Y478 whole entry): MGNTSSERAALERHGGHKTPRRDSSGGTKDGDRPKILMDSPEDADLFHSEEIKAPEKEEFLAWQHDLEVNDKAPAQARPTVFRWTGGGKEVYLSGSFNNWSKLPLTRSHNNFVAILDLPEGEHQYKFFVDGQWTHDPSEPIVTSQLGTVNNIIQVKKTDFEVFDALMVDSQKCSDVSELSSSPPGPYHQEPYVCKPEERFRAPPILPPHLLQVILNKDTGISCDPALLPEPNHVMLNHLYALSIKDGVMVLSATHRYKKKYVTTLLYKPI
Sequence of human AMPK (full-length γ1, β1 and α1 subunits) (P54619 whole entry partner): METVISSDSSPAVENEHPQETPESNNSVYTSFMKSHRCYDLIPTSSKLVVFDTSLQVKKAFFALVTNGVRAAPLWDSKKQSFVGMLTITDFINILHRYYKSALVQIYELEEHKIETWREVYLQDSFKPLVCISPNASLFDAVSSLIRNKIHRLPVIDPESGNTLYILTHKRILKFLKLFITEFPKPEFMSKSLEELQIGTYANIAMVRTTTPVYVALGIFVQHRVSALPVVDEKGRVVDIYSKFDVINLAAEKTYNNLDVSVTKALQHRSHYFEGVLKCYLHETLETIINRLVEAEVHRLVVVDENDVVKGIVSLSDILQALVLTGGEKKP

Row | SMILES | EC50 | Maximum | Emax
1 | O=C(O)c1c[nH]c2cc(Cl)c(-c3ccc(C4CCCO4)cc3)cc12 (single isomer, unassigned) [Example 155, 6-chloro-5-[4-(tetrahydrofuran-2-yl)phenyl]-1H-indole-3-carboxylic acid] | 47.8 nM | 126.9% | –
2 | O=S(=O)(O)c1c[nH]c2cc(Cl)c(-c3ccc(-c4ccccc4O)cc3)cc12 [Example 133, 6-Chloro-5-(2′-hydroxy-[1,1′-biphenyl]-4-yl)-1H-indole-3-sulfonic acid] | > 50000 nM | – | –
3 | COc1nc(N2CC[C@H](O)C2)ccc1-c1cc2c(C(=O)O)c[nH]c2cc1Cl [Example 184, 6-chloro-5-{6-[(3S)-3-hydroxypyrrolidin-1-yl]-2-methoxypyridin-3-yl}-1H-indole-3-carboxylic acid] | 6.2 nM | – | 84%
4 | O=C(O)c1n[nH]c2cc(Cl)c(-c3ccc4c(c3)CCC4)cc12 [Example 116, 6-Chloro-5-(2,3-dihydro-1H-inden-5-yl)-1H-indazole-3-carboxylic acid] | 47.8 nM | – | 104%
5 | O=C(O)c1c[nH]c2cc(F)c(-c3ccc(C4(CO)CC4)cc3)c(F)c12 [Example 22, 4,6-difluoro-5-(4-(1-(hydroxymethyl)cyclopropyl)phenyl)-1H-indole-3-carboxylic acid] | 13.7 nM | – | 122%
6 | O=C(O)c1n[nH]c2cc(Cl)c(-c3cccc(O)c3)cc12 [Example 112, 6-Chloro-5-(3-hydroxyphenyl)-1H-indazole-3-carboxylic acid] | 1320 nM | – | 80%
7 | COc1ccc(-c2cc3c(C(=O)O)n[nH]c3cc2Cl)cc1 [Example 97, 6-Chloro-5-(4-methoxyphenyl)-1H-indazole-3-carboxylic acid] | 202 nM | – | 94%
8 | COC(=O)N1CCC(c2ccc(-c3cc4c(C(=O)O)c[nH]c4cc3Cl)cc2)C1 (racemic) [Example 14, 6-chloro-5-{4-[1-(methoxycarbonyl)pyrrolidin-3-yl]phenyl}-1H-indole-3-carboxylic acid] | 151 nM | – | 100%
9 | CCOc1ccc(-c2cc3c(C(=O)O)c[nH]c3cc2Cl)cc1 [Example 31, 6-Chloro-5-(4-ethoxyphenyl)-1H-indole-3-carboxylic acid] | 130 nM | – | 104%
10 | O=C(O)c1c[nH]c2cc(Cl)c(-c3ccc(CC(=O)N4CCC4)cc3)cc12 [Example 11, 5-{4-[2-(azetidin-1-yl)-2-oxoethyl]phenyl}-6-chloro-1H-indole-3-carboxylic acid] | 554 nM | – | 73%
11 | O=C(O)c1c[nH]c2cc(F)c(-c3ccc(C4CCCO4)cc3)c(F)c12 (stereo not drawn) [Example 153, 4,6-difluoro-5-[4-(tetrahydrofuran-2-yl)phenyl]-1H-indole-3-carboxylic acid] | – | 112.3% | –
12 | O=C(O)c1c[nH]c2cc(Cl)c(-c3ccc(C4(O)COC4)cc3)cc12 [Example 5, 6-Chloro-5-(4-(3-hydroxyoxetan-3-yl)phenyl)-1H-indole-3-carboxylic acid] | 35.7 nM | – | 78%
13 | O=C(O)c1c[nH]c2cc(F)c(-c3ccc(CO)cc3)cc12 [Example 7, 6-fluoro-5-[4-(hydroxymethyl)phenyl]-1H-indole-3-carboxylic acid] | 671 nM | – | 78%
14 | COc1nc(-c2cc3c(C(=O)O)c[nH]c3cc2Cl)ccc1N1CCC(O)C1 (stereo not drawn) [Example 149, 6-chloro-5-[5-(3-hydroxypyrrolidin-1-yl)-6-methoxypyridin-2-yl]-1H-indole-3-carboxylic acid] | 76.9 nM | – | 88.9%
15 | O=C(O)c1c[nH]c2cc(Cl)c(-c3ccc(C4CCN4)cc3)cc12 (stereo not drawn) [Example 63, 5-(4-azetidin-2-yl-phenyl)-6-chloro-1H-indole-3-carboxylic acid] | 432 nM | – | 89%
16 | O=C(O)c1c[nH]c2cc(Cl)c(-c3ccc(C4CCNC4)cc3)cc12 (stereo not drawn) [Example 17, 6-chloro-5-[4-(pyrrolidin-3-yl)phenyl]-1H-indole-3-carboxylic acid] | 126 nM | – | 107%
17 | O=C(O)c1n[nH]c2cc(Cl)c(-c3ccc(OCCO)cc3)cc12 [Example 119, 6-Chloro-5-(4-(2-hydroxyethoxy)phenyl)-1H-indazole-3-carboxylic acid] | 44.8 nM | – | 97%
18 | O=C(O)c1c[nH]c2cc(Cl)c(-c3ccc(CO)cc3)cc12 [Example 2, 6-Chloro-5-[4-(hydroxymethyl)phenyl]-1H-indole-3-carboxylic acid] | 64.7 nM | – | 88%
19 | O=C(O)CCOc1ccc(-c2cc3c(C(=O)O)c[nH]c3cc2Cl)cc1 [Example 90, 5-[4-(2-carboxyethoxy)phenyl]-6-chloro-1H-indole-3-carboxylic acid] | 372 nM | – | 120%
20 | COc1cc(-c2cc3c(C(=O)NS(C)(=O)=O)c[nH]c3cc2Cl)ccc1C(C)(C)CO [Example 177, 6-chloro-5-[4-(1-hydroxy-2-methylpropan-2-yl)-3-methoxyphenyl]-N-(methylsulfonyl)-1H-indole-3-carboxamide] | 62.3 nM | – | 111%
21 | O=C(O)c1c[nH]c2cc(F)c(-c3ccc(C4CCOCC4)cc3)c(F)c12 [Example 166, 4,6-difluoro-5-[4-(tetrahydro-2H-pyran-4-yl)phenyl]-1H-indole-3-carboxylic acid] | 129 nM | – | 107%
22 | O=C(O)c1c[nH]c2cc(Cl)c(-c3ccccc3)cc12 [Example 3, 6-Chloro-5-phenyl-1H-indole-3-carboxylic acid] | 459 nM | – | 82%
23 | O=C(O)c1n[nH]c2cc(Cl)c(-c3ccc4c(c3)OCCO4)cc12 [Example 121, 6-Chloro-5-(2,3-dihydrobenzo[b][1,4]dioxin-6-yl)-1H-indazole-3-carboxylic acid] | 369 nM | – | 102%
24 | O=C(O)c1c[nH]c2cc(Cl)c(-c3ccc(N4CCCC4=O)cc3)cc12 [Example 64, 6-chloro-5-[4-(2-oxopyrrolidin-1-yl)phenyl]-1H-indole-3-carboxylic acid] | 169 nM | – | 82%
25 | O=C(O)c1n[nH]c2cc(Cl)c(-c3ccc(-c4ccccc4O)cc3)cc12 [Example 101, 6-Chloro-5-(2′-hydroxy-[1,1′-biphenyl]-4-yl)-1H-indazole-3-carboxylic acid] | 1.8 nM | – | 61%
26 | O=C(O)c1c[nH]c2cc(Cl)c(-c3ccc(OCCN4CCOCC4)cc3)cc12 [Example 19, 6-chloro-5-{4-[2-(morpholin-4-yl)ethoxy]phenyl}-1H-indole-3-carboxylic acid] | 383 nM | – | 96%
27 | O=C(O)c1c[nH]c2cc(Cl)c(-c3ccc(OCCn4cccn4)cc3)cc12 [Example 180, 6-chloro-5-{4-[2-(1H-pyrazol-1-yl)ethoxy]phenyl}-1H-indole-3-carboxylic acid] | 11.6 nM | – | 76.2%
28 | O=C(O)c1c[nH]c2cc(Cl)c(-c3ccc(C4(O)CCC4)cc3F)cc12 [Example 13, 6-chloro-5-[2-fluoro-4-(1-hydroxycyclobutyl)phenyl]-1H-indole-3-carboxylic acid] | 6.9 nM | – | 73%

Reference: patent US9394285B2 (Pfizer Inc., priority 2013, dated 2016)
